The target in one experiment is T1, human TLR7 (Homo sapiens, UniProt Q9NYK1).
T1 construct: host or cells: HEK-Blue cells
T1 sequence (Q9NYK1 27-1049): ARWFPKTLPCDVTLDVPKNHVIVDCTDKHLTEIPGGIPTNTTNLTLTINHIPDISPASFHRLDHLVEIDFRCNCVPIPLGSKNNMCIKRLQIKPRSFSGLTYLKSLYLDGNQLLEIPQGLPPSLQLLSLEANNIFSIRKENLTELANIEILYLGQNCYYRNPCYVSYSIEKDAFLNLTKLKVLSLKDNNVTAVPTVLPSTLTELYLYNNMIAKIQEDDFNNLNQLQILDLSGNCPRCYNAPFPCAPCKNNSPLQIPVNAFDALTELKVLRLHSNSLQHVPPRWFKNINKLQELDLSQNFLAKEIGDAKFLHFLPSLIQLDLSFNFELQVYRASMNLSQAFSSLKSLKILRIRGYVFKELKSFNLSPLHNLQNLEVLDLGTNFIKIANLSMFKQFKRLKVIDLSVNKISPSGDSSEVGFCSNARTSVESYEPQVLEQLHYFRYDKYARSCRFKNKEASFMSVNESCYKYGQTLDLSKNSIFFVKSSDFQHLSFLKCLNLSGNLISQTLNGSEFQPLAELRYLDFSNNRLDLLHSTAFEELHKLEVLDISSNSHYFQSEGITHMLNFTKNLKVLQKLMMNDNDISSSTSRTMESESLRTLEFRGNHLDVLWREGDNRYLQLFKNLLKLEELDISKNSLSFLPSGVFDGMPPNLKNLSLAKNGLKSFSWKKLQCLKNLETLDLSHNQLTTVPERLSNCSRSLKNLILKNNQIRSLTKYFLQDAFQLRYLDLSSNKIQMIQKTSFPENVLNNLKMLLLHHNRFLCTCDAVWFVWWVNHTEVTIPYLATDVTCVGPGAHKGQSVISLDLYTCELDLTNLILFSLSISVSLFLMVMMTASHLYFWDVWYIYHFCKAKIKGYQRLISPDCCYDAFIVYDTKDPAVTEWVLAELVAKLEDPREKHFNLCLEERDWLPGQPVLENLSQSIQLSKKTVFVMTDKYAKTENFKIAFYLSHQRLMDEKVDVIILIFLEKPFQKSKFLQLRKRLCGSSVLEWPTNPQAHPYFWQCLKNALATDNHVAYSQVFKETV
In words: TLR7 inhibition reporter assay (HEK-Blue SEAP reporter). The class given is cell-based. Conditions: HEK-Blue cells overexpressing human TLR7; gardiquimod 7.5 μM; 22 hour incubation. On the procedure: (§1) TLR7/8/9 Inhibition Reporter Assays
(§2) HEK-Blue™-cells (Invivogen) overexpressing human TLR7, TLR8 or TLR9 receptors were used for screening inhibitors of these receptors using an inducible SEAP (secreted embryonic alkaline phosphatase) reporter gene under the control of the IFN-β minimal promoter fused to five NF-κB and AP-1-binding sites. Briefly, cells are seeded into Greiner 384 well plates (15000 cells per well for TLR7, 20,000 for TLR8 and 25,000 for TLR9) and then treated with test compounds in DMSO to yield a final dose response concentration range of 0.05 nM-50 μM. After a 30 minute compound pre-treatment at room temperature, the cells are then stimulated with a TLR7 ligand (gardiquimod at a final concentration of 7.5 μM), TLR8 ligand (R848 at a final concentration of 15.9 μM) or TLR9 ligand (ODN2006 at a final concentration of 5 nM) to activate NF-κB and AP-1 which induce the production of SEAP. After a 22 hour incubation at 37° C., 5% CO2, SEAP levels are determined with the addition of HEK-Blue™ Detection reagent (Invivogen), a cell culture medium that allows for detection of SEAP, according to manufacturer's specifications. The percent inhibition is determined as the % reduction in the HEK-Blue signal present in wells treated with agonist plus DMSO alone compared to wells treated with a known inhibitor.

The target in another experiment is T2, human TLR9 (Homo sapiens, UniProt Q9NR96).
T2 construct: host or cells: HEK-Blue cells
T2 sequence (Q9NR96 26-1032): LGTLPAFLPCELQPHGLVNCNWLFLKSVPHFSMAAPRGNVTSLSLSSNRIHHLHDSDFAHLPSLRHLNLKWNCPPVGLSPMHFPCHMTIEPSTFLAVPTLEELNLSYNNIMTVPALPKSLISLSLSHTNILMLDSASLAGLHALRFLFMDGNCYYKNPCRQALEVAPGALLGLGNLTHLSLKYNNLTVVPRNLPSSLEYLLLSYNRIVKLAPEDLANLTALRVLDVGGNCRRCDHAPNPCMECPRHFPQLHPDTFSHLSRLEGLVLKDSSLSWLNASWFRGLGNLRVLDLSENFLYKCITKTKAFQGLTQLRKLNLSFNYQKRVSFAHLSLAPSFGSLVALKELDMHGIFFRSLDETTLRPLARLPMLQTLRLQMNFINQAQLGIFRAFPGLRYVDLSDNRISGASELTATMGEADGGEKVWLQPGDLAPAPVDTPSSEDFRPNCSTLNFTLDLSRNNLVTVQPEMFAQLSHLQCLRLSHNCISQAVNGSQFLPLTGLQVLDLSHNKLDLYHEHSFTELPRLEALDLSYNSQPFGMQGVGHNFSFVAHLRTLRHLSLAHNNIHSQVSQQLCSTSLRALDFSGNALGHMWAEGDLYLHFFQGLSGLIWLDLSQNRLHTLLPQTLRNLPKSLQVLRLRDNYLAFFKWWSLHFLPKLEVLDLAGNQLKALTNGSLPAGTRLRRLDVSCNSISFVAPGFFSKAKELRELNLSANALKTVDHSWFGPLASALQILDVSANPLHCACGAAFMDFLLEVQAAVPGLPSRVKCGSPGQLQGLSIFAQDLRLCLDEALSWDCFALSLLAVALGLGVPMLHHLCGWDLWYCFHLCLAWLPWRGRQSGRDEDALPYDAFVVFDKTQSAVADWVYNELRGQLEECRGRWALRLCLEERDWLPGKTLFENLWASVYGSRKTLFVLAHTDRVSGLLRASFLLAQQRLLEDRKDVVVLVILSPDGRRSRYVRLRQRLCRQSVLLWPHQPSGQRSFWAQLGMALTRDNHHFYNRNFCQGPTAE
Put plainly: TLR9 inhibition reporter assay (HEK-Blue SEAP reporter). The class given is cell-based. The following applies: HEK-Blue cells overexpressing human TLR9; ODN2006 5 nM; 22 hour incubation. On the procedure: as §1, §2

SMILES strings stand for the structures.

As usually defined, the IC50 is the concentration at which inhibition is half-maximal. Read a high IC50 as a need for much substance. Consider `COc1ccc(-c2[nH]c3ccc(NC4CCC(N5CCN(Cc6ccc(C)cc6)CC5)CC4)cc3c2C(C)C)cc1OC` (stereo not shown) [Example 65, 2-(3,4-dimethoxyphenyl)-3-isopropyl-N-(4-(4-(4-methylbenzyl)piperazin-1-yl)cyclohexyl)-1H-indol-5-amine], for which the figures for the IC50 against human TLR7 and against human TLR9 were 1180 nM and 588 nM, respectively.

As for `COc1ccc(-c2[nH]c3ccc(NC4CCC(N5CCN(Cc6ccc(C)cc6)CC5)CC4)cc3c2C(C)C)cc1OC` (stereo not shown) [Example 66, 2-(3,4-dimethoxyphenyl)-3-isopropyl-N-(4-(4-(4-methylbenzyl)piperazin-1-yl)cyclohexyl)-1H-indol-5-amine], the IC50 against human TLR7 is 686 nM; on human TLR9, 583 nM.

For the molecule `COc1ccc(-c2[nH]c3ccc(NC4CCC(N5CCN(CCCN6CCCC6)CC5)CC4)cc3c2C(C)C)cc1OC` (stereo not shown) [Example 67, 2-(3,4-dimethoxyphenyl)-3-isopropyl-N-(4-(4-(3-(pyrrolidin-1-yl)propyl)piperazin-1-yl)cyclohexyl)-1H-indol-5-amine], the figures for the IC50 on human TLR7 and against human TLR9 were 322 nM and 589 nM, respectively.

Turning to `COc1ccc(-c2[nH]c3ccc(N4CCC(NCCN(C)C)CC4)cc3c2C(C)C)cc1OC` [Example 75, N1-(1-(2-(3,4-dimethoxyphenyl)-3-isopropyl-1H-indol-5-yl)piperidin-4-yl)-N2,N2-dimethylethane-1,2-diamine], the figures for the IC50 at human TLR7 and at human TLR9 were 206 nM and 3860 nM, respectively.

Regarding `COc1ccc(-c2[nH]c3ccc(N4CCC(N5CCN(C(C)=O)CC5)CC4)cc3c2C(C)C)cc1OC` [Example 82, 1-(4-(1-(2-(3,4-dimethoxyphenyl)-3-isopropyl-1H-indol-5-yl)piperidin-4-yl)piperazin-1-yl)ethan-1-one], the IC50 turned out to be 114 nM on human TLR7 and 6560 nM against human TLR9.

With `COc1ccc(-c2[nH]c3ccc(N4CCC(N5CCC(N(C)C)CC5)CC4)cc3c2C(C)C)cc1OC` [Example 83, 1′-(2-(3,4-dimethoxyphenyl)-3-isopropyl-1H-indol-5-yl)-N,N-dimethyl-[1,4′-bipiperidin]-4-amine], the figures for the IC50 on human TLR7 and at human TLR9 were 287 nM and 1290 nM, respectively.

`COc1ccc(-c2[nH]c3ccc(N4CCC(N5CCN(CC6CC6)CC5)CC4)cc3c2C(C)C)cc1OC` [Example 87, 5-(4-(4-(cyclopropylmethyl)piperazin-1-yl)piperidin-1-yl)-2-(3,4-dimethoxyphenyl)-3-isopropyl-1H-indole]: the IC50 on human TLR7 was 337 nM; on human TLR9, 9800 nM.

Regarding `COc1ccc(-c2[nH]c3ccc(N4CCC(N5CCCN(C(C)=O)CC5)CC4)cc3c2C(C)C)cc1OC` [Example 88, 1-(4-(1-(2-(3,4-dimethoxyphenyl)-3-isopropyl-1H-indol-5-yl)piperidin-4-yl)-1,4-diazepan-1-yl)ethan-1-one], the IC50 at human TLR7 was 69 nM; against human TLR9 it was 4640 nM.

`COc1ccc(-c2[nH]c3ccc(N4CCC(N5CCN(C6CCCC6)CC5)CC4)cc3c2C(C)C)cc1OC` [Example 93, 5-(4-(4-cyclopentylpiperazin-1-yl)piperidin-1-yl)-2-(3,4-dimethoxyphenyl)-3-isopropyl-1H-indole]: the results for the IC50 on human TLR7 and on human TLR9 were 132 nM and 925 nM, respectively.

With `COc1ccc(-c2[nH]c3ccc(N4CCC(C5CCN(Cc6ccsc6)CC5)CC4)cc3c2C(C)C)cc1OC` [Example 98, 2-(3,4-dimethoxyphenyl)-3-isopropyl-5-(1′-(thiophen-3-ylmethyl)-[4, 4′-bipiperidin]-1-yl)-1H-indole], the IC50 stood at 181 nM against human TLR7 and 1520 nM at human TLR9.

For the molecule `COc1ccc(-c2[nH]c3ccc(N4CCC(N5CCN(CCN6CCCC6)CC5)CC4)cc3c2C(C)C)cc1OC` [Example 100, 2-(3,4-dimethoxyphenyl)-3-isopropyl-5-(4-(4-(2-(pyrrolidin-1-yl)ethyl)piperazin-1-yl)piperidin-1-yl)-1H-indole], the IC50 on human TLR7 came out at 102 nM; at human TLR9, 1010 nM.

With `COc1ccc(-c2[nH]c3ccc(N4CCC(N5CCN(Cc6ccc(C)cc6)CC5)CC4)cc3c2C(C)C)cc1OC` [Example 101, 2-(3,4-dimethoxyphenyl)-3-isopropyl-5-(4-(4-(4-methylbenzyl)piperazin-1-yl)piperidin-1-yl)-1H-indole], the IC50 turned out to be 1350 nM against human TLR7 and 1900 nM against human TLR9.

In the case of `COc1ccc(-c2[nH]c3ccc(N4CCC(N5CCCN(C)CC5)CC4)cc3c2C(C)C)cc1OC` [Example 123, 2-(3,4-dimethoxyphenyl)-3-isopropyl-5-(4-(4-methyl-1,4-diazepan-1-yl)piperidin-1-yl)-1H-indole], the IC50 against human TLR7 came to 281 nM; at human TLR9, 1690 nM.

On to `CCc1c(-c2ccc(OC)c(OC)c2)[nH]c2ccc(NC3CCN(C4CCN(C)CC4)CC3)cc12` [Example 125, 2-(3,4-dimethoxyphenyl)-3-ethyl-N-(1′-methyl-[1,4′-bipiperidin]-4-yl)-1H-indol-5-amine], for which the IC50 was 376 nM against human TLR7 and 758 nM on human TLR9.

Take `CCc1c(-c2ccc(OC)c(OC)c2)[nH]c2ccc(N3CCC(OC4CCNCC4)CC3)cc12` [Example 132, 2-(3,4-dimethoxyphenyl)-3-ethyl-5-(4-(piperidin-4-yloxy)piperidin-1-yl)-1H-indole]: the values for the IC50 against human TLR7 and against human TLR9 were 250 nM and 1050 nM, respectively.

Turning to `CCc1c(-c2ccnc(OC)c2)[nH]c2ccc(N3CCN(CCNC)CC3)cc12` [Example 137, 2-(4-(3-ethyl-2-(2-methoxypyridin-4-yl)-1H-indol-5-yl)piperazin-1-yl)-N-methylethan-1-amine], the results for the IC50 at human TLR7 and against human TLR9 were 70 nM and 2960 nM, respectively.

On to `CCc1c(-c2ccc(OC)c(OC)c2)[nH]c2ccc(N3CCN(CCNC)CC3)cc12` [Example 140, 2-(4-(2-(3,4-dimethoxyphenyl)-3-ethyl-1H-indol-5-yl)piperazin-1-yl)-N-methylethan-1-amine], for which the IC50 turned out to be 235 nM on human TLR7 and 3940 nM against human TLR9.
